{
  "source": "patent US20250345426A1",
  "about": "“METHODS FOR MAKING AND USING THERAPEUTIC CELLS” (THE REGENTS OF THE UNIVERSITY OF CALIFORNIA, priority 2022, published 2025)",
  "system": "rituximab CAR-T cells",
  "experiment": "Antigen-independent CAR-T cell metabolic activity, rituximab CAR-T cells (data not shown)",
  "type": "cell-based, human",
  "source_text": "Cell line generation and maintenance. HEK 293T and Raji cells were obtained from ATCC. Leu16 and rituximab scFv-expressing HEK293T cell lines were generated by retroviral transduction of HEK293T cells to express each scFv fused with EGFP via a 2A peptide, and EGFP+ cells were sorted by fluorescence-activated cell sorting (FACS) on a FACSAria (II) cell sorter (BD Bioscience) at the UCLA Flow Cytometry Core Facility. CD20+K562 cells were generated by transduction of K562 cells with a retroviral construct encoding full-length CD20. K562 cells with varying CD20 expression levels were generated by FACS sorting of CD20+K562 into bins of different antigen densities. CHLA-255-Luc-EGFP cells were generated by retroviral transduction of CHLA-255-Luc to express EGFP, and EGFP+ cells were enriched by FACS. HEK 293T cells were cultured in DMEM (HyClone) supplemented with 10% heat-inactivated FBS (HI-FBS; ThermoFisher). CHLA-255-Luc-EGFP cells were cultured in IMDM (ThermoFisher) with 10% HI-FBS. Primary human T cells, Raji, and K562 cells were cultured in RPMI-1640 (Lonza) with 10% HI-FBS. For CAR-T cells used in metabolomics studies, T cells were cultured in RPMI-1640 containing 2 g/L of 1,2-13C-glucose with 10% heat-inactivated dialyzed FBS (HI-dFBS).",
  "data": [
    {"smiles": "C=C(C)[C@@H]1CC[C@]2(CO)CC[C@]3(C)[C@H](CC[C@@H]4[C@@]5(C)CC[C@H](O)C(C)(C)[C@@H]5CC[C@]43C)[C@@H]12", "note": "[betulin, Betulin]", "values": [
      {"measurement": "antigen-independent CAR-T cell metabolic activity", "value": "increases"}
    ]}
  ]
}
